According to patent publication US10111449B2, “Production procedure for a functional feed based in ellagic acid, cimenol and alliin from vegetable extracts to be used as pronutrient in animal feed” (BIOVET, S.A., priority 2015, dated 2018):

Legend:
[1] = tested on: bacteria, yeast and fungal; gastrointestinal pathogens; assay: In vitro tests and field trials of cimenol ring against gastrointestinal pathogens
Source text: In vitro tests and field trials indicate that cimenol ring is effective against bacteria, yeast and fungal; gastrointestinal pathogens whose mechanisms of action are: […]

[2] = tested on: yeasts and fungi; assay: Kill of yeasts and fungi on contact with cimenol ring; assay type: cell-based; details: appropriate concentrations, 10 minutes of contact
Experimental: On yeasts and fungi, appropriate concentrations of cimenol ring achieves to kill 100% of microorganisms in just 10 minutes of contact. Cell lysis and release of cellular contents into the medium are observed. At electronic microscope, yeasts and fungi are malformed and have fractures in cell walls, especially those found in the proliferation phase.

Q: Which “effectiveness against bacteria, yeast and fungal gastrointestinal pathogens” value [1] does the source give for cimenol [cimenol ring] here?
A: The value was “effective”.

Q: What about the kill of microorganisms [2] of the same substance?
A: Its kill of microorganisms is 100%.
